Here are results for 20 molecules from patent US7989458B2, “Pyrimidine derivatives as alk-5 inhibitors” (Novartis AG, priority 2006, dated 2011).

What is called IC50 is the midpoint of a concentration-inhibition curve. A low value points to greater potency in that assay.

The chains are these.
T1: human ALK5 (ALK5 T204D kinase domain) (Homo sapiens, UniProt P36897, T204D)
T1 construct: The kinase domain of human ALK5 (amino acids 200-503); made in house; host or cells: insect cells (baculovirus)
T1 sequence (P36897 200-503 T204D): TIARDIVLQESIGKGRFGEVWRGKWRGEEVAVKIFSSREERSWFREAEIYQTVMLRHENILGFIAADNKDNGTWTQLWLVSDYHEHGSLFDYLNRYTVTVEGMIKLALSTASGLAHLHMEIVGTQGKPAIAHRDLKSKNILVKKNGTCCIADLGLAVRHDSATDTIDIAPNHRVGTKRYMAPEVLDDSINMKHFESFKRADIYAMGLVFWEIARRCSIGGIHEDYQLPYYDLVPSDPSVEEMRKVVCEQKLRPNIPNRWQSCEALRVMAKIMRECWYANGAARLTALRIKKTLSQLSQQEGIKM

B1: Follistatin: an antagonist of activin signalling (protein, UniProt P19883 30-344, looked up)
Follistatin: GNCWLRQAKNGRCQVLYKTELSKEECCSTGRLSTSWTEEDVNDNTLFKWMIFNGGAPNCIPCKETCENVDCGPGKKCRMNKKNKPRCVCAPDCSNITWKGPVCGLDGKTYRNECALLKARCKEQPELEVQYQGRCKKTCRDVFCPGSSTCVVDQTNNAYCVTCNRICPEPASSEQYLCGNDGVTYSSACHLRKATCLLGRSIGLAYEGKCIKAKSCEDIQCTGGKKCLWDFKVGRGRCSLCDELCPDSKSDEPVCASDNATYASECAMKEAACSSGVLLEVKHSGSCNSISEDTEEEEEDEDQDYSFPISSILEW

One series concerns the target T1, human ALK5 (ALK5 T204D kinase domain). The series is described as follows: ALK5 kinase activity, [33P] phosphate incorporation into casein. The class given is biochemical. The conditions noted are these: casein substrate, 1 μM unlabelled ATP. As for the experimental part:
The kinase activity of ALK5 is assessed by measuring radiolabelled phosphate [33P] incorporation in to the generic substrate, casein. The kinase domain of human ALK5 (amino acids 200-503) is fused to an N-terminal histidine tag. The kinase activity of ALK5 is rendered constitutive via point mutation at amino acid 204 (threonine to aspartate modification, ALK5 T204D) and the kinase construct is engineered to be expressed from a baculovirus expression construct in insect cells. The purified, recombinantly-expressed histidine-tagged ALK5 T204D protein is dissolved at 5.4 mg/ml in 50 mM Tris-HCl pH 8.0, 150 mM NaCl, 5 mM DTT. ALK5 T204D is dissolved to 2.5 μg/ml in assay buffer (Assay buffer: 20 mM Tris-HCl pH 7.4, 10 mM MgCl2, 2 mM MnCl2) on the day of use.
Test compounds and reference compounds are dissolved in assay buffer without DTT containing 5% (v/v) DMSO. Stock solutions of test and reference compounds are diluted in assay buffer with DTT (1.25 mM) containing 4.5% (v/v) DMSO. 10 μl of test or reference compound are added to the appropriate wells of 96 well U-bottomed plate. Total enzyme activity is determined by measuring ALK5 T204D activity in the absence of ALK5 kinase inhibitor reference compounds. Non-specific binding (NSB) is determined by measuring the activity of ALK5 T204D in the presence of ALK5 kinase inhibitor reference compounds. 10 μl of dephosphorylated casein stock solution (dephosphorylated casein is dissolved in ddH2O at 20 mg/ml) is added per well (200 μg/well final assay concentration). 20 μl of ALK5 T204D (2.5 μg/ml solution) is added per well (50 ng/well final assay concentration). The plates are left to incubate at room temperature for 10 minutes.
10 μl of ATP mix is added to the well to initiate the reaction (0.66 nM [^33P]ATP/1 μM unlabelled ATP/well final assay concentration). The ATP mix is prepared as follows, unlabelled ATP (3 mM) is dissolved in ddH2O and pH adjusted to 7.4. The stock concentration of [^33P]ATP is 10 μCi/μl. The appropriate volume of [^33P]ATP is added to unlabelled ATP solution such that the final assay concentration per well is 0.1 μCi. Following addition of the ATP mix, the plates are incubated at room temperature for 50 minutes. The kinase reaction is terminated by the addition of 50 μL Stop Buffer (20 mM Tris-HCl pH 7.4, 10 mM EDTA).
75 μl/well from the reaction plate is transferred to a Multiscreen-IP plate (MultiScreen-IP plates are prepared by added 50 μL of 70% (v/v) ethanol per well and incubated for 5 minutes at room temperature. The ethanol is removed by aspiration via a MultiScreen HTS Vacuum Manifold unit (Millipore, Cat no: MSVMHT500). The plates are washed twice by adding 200 μl/well ddH2O). The MultiScreen-IP plate is incubated at room temperature for 30 minutes to allowing binding of casein to the plate. The MultiScreen-IP plates are washed three times by adding 200 μl/well 100 mM phosphoric acid solution and the gasket is carefully removed from the back of the MultiScreen-IP plate and the plate dried in the oven for 30 minutes. The MultiScreen-IP plate is backsealed, 50 μL of Microscint™20 is added, then the plates are topsealed and radiolabelled casein detected and quantified on a TopCount™ plate-reader using the ^33P scintillation protocol.
`c1ccc(-c2nc(NCc3cccc4[nH]ccc34)cc(-c3cccnc3)n2)nc1` [Example 1.1, (1H-Indol-4-ylmethyl)-(6-pyridin-3-yl-2-pyridin-2-yl-pyrimidin-4-yl)-amine] showed an IC50 of 100 nM.

The molecule `COc1cccc(-c2cncc(-c3cc(NCc4cccc(O)c4)nc(-c4ccccn4)n3)c2)c1` [Example 2.17, 3-({6-[5-(3-Methoxy-phenyl)-pyridin-3-yl]-2-pyridin-2-yl-pyrimidin-4-ylamino}-methyl)-phenol] displayed an IC50 of 80 nM.

As for `CNc1cc(-c2cncc(-c3cccc(OC)c3)c2)nc(-c2cccc(C)n2)n1` [Example 2.69, [6-[5-(3-Methoxy-phenyl)-pyridin-3-yl]-2-(6-methyl-pyridin-2-yl)-pyrimidin-4-yl]-methyl-amine], half-maximal inhibition (IC50) required 420 nM.

The molecule `Fc1ccc2[nH]cc(CCNc3cc(-c4cccnc4)nc(-c4ccccn4)n3)c2c1` [Example 1.15, [2-(5-Fluoro-1H-indol-3-yl)-ethyl]-(6-pyridin-3-yl-2-pyridin-2-yl-pyrimidin-4-yl)-amine] came in with an IC50 of 790 nM.

For `Cc1cccc(-c2nc(NCCc3cccc4[nH]ccc34)cc(-c3cccnc3)n2)n1` [Example 1.6, [2-(1H-Indol-4-yl)-ethyl]-[2-(6-methyl-pyridin-2-yl)-6-pyridin-3-yl-pyrimidin-4-yl]-amine], the IC50 is 20 nM.

On to `c1ccc(-c2nc(NCc3c[nH]c4ccccc34)cc(-c3cccnc3)n2)nc1` [Example 1.23, (1H-Indol-3-ylmethyl)-(6-pyridin-3-yl-2-pyridin-2-yl-pyrimidin-4-yl)-amine], for which the IC50 was found to be 570 nM.

Regarding `COc1cncc(-c2cc(NCc3cccc4[nH]ccc34)nc(-c3cccc(C)n3)n2)c1` [Example 2.2, (1H-Indol-4-ylmethyl)-[6-(5-methoxy-pyridin-3-yl)-2-(6-methyl-pyridin-2-yl)-pyrimidin-4-yl]-amine], the IC50 came out at 20 nM.

Molecule `Cc1ccc2c(CCNc3cc(-c4cccnc4)nc(-c4cccc(C)n4)n3)c[nH]c2c1` [Example 1.82, [2-(6-Methyl-1H-indol-3-yl)-ethyl]-[2-(6-methyl-pyridin-2-yl)-6-pyridin-3-yl-pyrimidin-4-yl]-amine] had an IC50 of 100 nM.

With `Oc1ccccc1CCNc1cc(-c2cccnc2)nc(-c2ccccn2)n1` [Example 1.62, 2-[2-(6-Pyridin-3-yl-2-pyridin-2-yl-pyrimidin-4-ylamino)-ethyl]-phenol], the IC50 was 150 nM.

As for `Cc1cccc(-c2nc(NCCc3cccc(O)c3)cc(-c3cccnc3)n2)n1` [Example 1.48, 3-{2-[2-(6-Methyl-pyridin-2-yl)-6-pyridin-3-yl-pyrimidin-4-ylamino]-ethyl}-phenol], the IC50 came out at 80 nM.

As for `Cc1cncc(-c2cc(NCCc3c[nH]c4ccccc34)nc(-c3ccccn3)n2)c1` [Example 2.31, [2-(1H-Indol-3-yl)-ethyl]-[6-(5-methyl-pyridin-3-yl)-2-pyridin-2-yl-pyrimidin-4-yl]-amine], the IC50 came to 910 nM.

Take `Oc1ccc2[nH]cc(CCNc3cc(-c4cccnc4)nc(-c4ccccn4)n3)c2c1` [Example 1.29, 3-[2-(6-Pyridin-3-yl-2-pyridin-2-yl-pyrimidin-4-ylamino)-ethyl]-1H-indol-5-ol]: the IC50 amounted to 370 nM.

Molecule `c1ccc(-c2nc(NCCc3cccc4[nH]ccc34)cc(-c3cccnc3)n2)nc1` [Example 1.2, [2-(1H-Indol-4-yl)-ethyl]-(6-pyridin-3-yl-2-pyridin-2-yl-pyrimidin-4-yl)-amine] returned an IC50 of 30 nM.

`c1ccc(-c2nc(NCCc3coc4ccccc34)cc(-c3cccnc3)n2)nc1` [Example 1.77, (2-Benzofuran-3-yl-ethyl)-(6-pyridin-3-yl-2-pyridin-2-yl-pyrimidin-4-yl)-amine]: the 50% inhibitory concentration (IC50) was determined as 180 nM.

`Cc1cccc(-c2nc(NCCc3c[nH]c4ccccc34)cc(-c3cccnc3)n2)n1` [Example 1.3, [2-(1H-Indol-3-yl)-ethyl]-[2-(6-methyl-pyridin-2-yl)-6-pyridin-3-yl-pyrimidin-4-yl]-amine] yielded an IC50 of 60 nM.

In turn, `COc1cccc(-c2cncc(-c3cc(NCc4cccc(O)c4)nc(-c4cccc(C)n4)n3)c2)c1` [Example 2.70, 3-([6-[5-(3-Methoxy-phenyl)-pyridin-3-yl]-2-(6-methyl-pyridin-2-yl)-pyrimidin-4-ylamino]-methyl}-phenol] came in with an IC50 of 10 nM.

`Fc1cccc2c(CCNc3cc(-c4cccnc4)nc(-c4ccccn4)n3)c[nH]c12` [Example 1.42, [2-(7-Fluoro-1H-indol-3-yl)-ethyl]-(6-pyridin-3-yl-2-pyridin-2-yl-pyrimidin-4-yl)-amine] returned an IC50 of 310 nM.

On to `Cc1cccc(-c2nc(NCc3cccc(O)c3)cc(-c3cncc(-c4ccc(F)cc4)c3)n2)n1` [Example 2.71, 3-{[6-[5-(4-Fluoro-phenyl)-pyridin-3-yl]-2-(6-methyl-pyridin-2-yl)-pyrimidin-4-ylamino]-methyl}-phenol], for which it took 40 nM to reach half-maximal inhibition (IC50).

For a further series, the system named is dimethylnitrosamine induced liver fibrosis.
Test: not given
The conditions noted are these: rat, during the 3 weeks treatment; cited from earlier work.
For `c1ccc(-c2cc(-c3cn[nH]c3-c3ccccn3)ccn2)cc1` [GW6604], the side effects entry is given as “no obvious side effects”.

The same series, now with this note: rat, given therapeutically, 3 weeks treatment; cited from earlier work.
Turning to `c1ccc(-c2cc(-c3cn[nH]c3-c3ccccn3)ccn2)cc1` [GW6604], the “inhibition of extracellular matrix deposition” value was 60% and the “prevention of death rate” value is reported as 40%.

For a further series, the system named is bleomycin-treated rats.
Test: not given
The settings on record: cited from earlier work.
On to B1, for which the lung fibrosis result is “attenuated lung fibrosis”; the “number of macrophages and neutrophils in bronchoalveolar lavage” value was “significantly reduced”.
